{"source": "patent US20250339462A1", "about": "“CANCER TREATMENT USING ULTRA-HIGH CONCENTRATION GASEOUS NITRIC OXIDE AND A CHECKPOINT INHIBITOR” (Beyond Air, Inc., priority 2022, published 2025)", "tested_on": "CT26 cells", "assay": "In vitro UNO exposure of CT26 cells, Annexin V/PI cell death analysis", "assay_type": "cell-based, mouse", "details": "25,000-100,000 ppm for 10 s, 30 s or 1 min; 24 hours following exposure; dosage and time dependent", "procedure": "Preparation of cells—Mouse colon carcinoma CT26.WT cells (ATCC number: CRL-2638) were grown to a 70-80% confluency and harvested using trypsin. Following, the cells were centrifuged at 1,200 revolutions per minute (rpm)—241 G for 8 minutes, then the pellet was re-suspended in 1 ml of cell media (RPMI—1640 supplemented with 10% FBS and 1% Pen-Strep). The cells were counted using an automated cell counter and a total of 2×10^6 cells were seeded into each […] containing 9 ml cell media. The plates were then placed for 24 hours in an incubator at 37° C., 5% CO2.\nUNO treatment—Following 24 hours of incubation, cell media was removed, and the plate was placed in an acrylic box stationed within an operating chemical fume hood. Prior to the initiation of treatment, the box was exposed to UV for 1 hour to reduce the chances of contamination. The box was closed and sealed with parafilm. A PVC delivery line was placed within a designated hole on the top of the box and lowered until approximately 5 cm within the box. The flowmeter was set to 1 LPM to expose the cells for the durations and concentrations described in Table 3 (control cells were untreated).\nFollowing treatment, 9 ml of cell media were added to each well and the plate was placed for 24 hours in an incubator at 37° C., 5% CO2.\nFlow cytometry—Cell media was removed to a 50 ml centrifuge tube. […]"}
{"compound": "[N]=O", "note": "[UNO, nitric oxide]", "values": [{"measurement": "Effect on viability of CT26 cancer cells", "result": "reduces viability and induces apoptosis and necrosis"}]}
